# Numbers after ± are expanded uncertainties.
# Conditions: 101.33 kPa, Liquid, Pycnometric method
SMILES,mass density (303.15 K) [kg/m3],mass density (313.15 K) [kg/m3],mass density (323.15 K) [kg/m3],mass density (333.15 K) [kg/m3],mass density (343.15 K) [kg/m3]
"OCCCOCCCO [4-oxa-1,7-heptanediol]",1014 ± 1,1007 ± 1,999 ± 1,991 ± 1,984 ± 1
OCCOCCO [diethylene glycol],1109 ± 1,1103 ± 1,1095 ± 1,1088 ± 1,1081 ± 1
